For assay [1], the system named is MMP-2 and MMP-9. The following applies: Wada et al.; cited from earlier work.
The test system of assay [2] is tumor growth. The conditions noted are these: murine syngenetic tumor growth model; cited from earlier work.
The target of assay [3] is T1, MMP-2 (Homo sapiens, UniProt P08253).
T1 sequence (P08253 110-660): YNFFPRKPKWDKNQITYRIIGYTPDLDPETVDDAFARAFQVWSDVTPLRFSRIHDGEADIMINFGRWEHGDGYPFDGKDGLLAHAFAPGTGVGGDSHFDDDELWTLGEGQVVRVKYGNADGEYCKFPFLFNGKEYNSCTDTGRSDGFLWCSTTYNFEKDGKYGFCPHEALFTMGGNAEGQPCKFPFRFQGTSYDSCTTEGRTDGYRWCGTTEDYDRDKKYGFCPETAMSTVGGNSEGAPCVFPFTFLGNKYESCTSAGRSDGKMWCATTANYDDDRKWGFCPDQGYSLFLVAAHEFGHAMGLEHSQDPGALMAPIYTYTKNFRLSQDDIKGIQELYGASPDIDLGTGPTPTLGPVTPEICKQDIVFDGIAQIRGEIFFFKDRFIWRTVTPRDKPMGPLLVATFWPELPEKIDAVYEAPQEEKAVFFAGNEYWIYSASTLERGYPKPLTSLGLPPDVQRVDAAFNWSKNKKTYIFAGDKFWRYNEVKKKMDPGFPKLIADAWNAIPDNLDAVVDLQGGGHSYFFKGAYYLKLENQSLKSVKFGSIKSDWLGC
The following applies: Curtin et al.; cited from earlier work.

Assay [4] addresses T1, MMP-2. The assay can be described thus: Steady-state kinetics of the mechanism of inhibition of MMP-2. Type of assay: biochemical. The following applies: 6 inhibitor concentrations 0 to 600 nanomolar, FIG. 8.
Description: In FIG. 8, 1 over the initial velocity Vo, which is the initial rate of product formation in a steady state kinetics assay, is plotted on the Y-axis versus 1 over concentration of substrate [S] used in the assay on the X-axis for inhibition of MMP-2 with N-[(3-phenylisoxazol-5-ylmethyl)-aminothiocarbonyl]-benzamide at 6 concentrations of from 0 nanomolar to 600 nanomolar.
The target of assay [5] is T2, MMP-9 full length (9FL) (Homo sapiens, UniProt P14780).
T2 construct: purchased Calbiochem; host or cells: stimulated neutrophils
T2 sequence (P14780 107-707 limits assumed): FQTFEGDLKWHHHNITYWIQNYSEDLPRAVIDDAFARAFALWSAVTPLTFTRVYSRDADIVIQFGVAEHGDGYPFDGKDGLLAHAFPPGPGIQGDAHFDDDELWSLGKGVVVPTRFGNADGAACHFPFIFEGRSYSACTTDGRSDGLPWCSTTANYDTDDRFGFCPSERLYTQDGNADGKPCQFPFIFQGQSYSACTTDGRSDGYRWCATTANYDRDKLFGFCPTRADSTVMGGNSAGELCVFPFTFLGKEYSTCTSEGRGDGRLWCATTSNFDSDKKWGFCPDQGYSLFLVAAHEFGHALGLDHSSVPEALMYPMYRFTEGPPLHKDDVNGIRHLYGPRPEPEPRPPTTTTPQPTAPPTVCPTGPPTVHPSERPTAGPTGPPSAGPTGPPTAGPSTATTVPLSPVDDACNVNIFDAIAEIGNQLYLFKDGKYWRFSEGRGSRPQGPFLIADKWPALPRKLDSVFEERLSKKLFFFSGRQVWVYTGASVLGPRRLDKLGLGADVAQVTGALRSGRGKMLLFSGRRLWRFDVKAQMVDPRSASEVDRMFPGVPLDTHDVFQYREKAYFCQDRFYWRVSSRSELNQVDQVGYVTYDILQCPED
The assay can be described thus: Fluorigenic peptide-1 substrate based assay, MMP-9, with/without AcNHOH. The format is biochemical. The source says: MMP-9 may be obtained from commercial sources. For example, full-length pro-MMP-9 purified from stimulated neutrophils is available from Calbiochem.

Assay [6] addresses T3, MMP-13 catalytic domain (MMP-13CD) (Homo sapiens, UniProt P45452).
T3 construct: The catalytic domain of the MMP-13 enzyme, namely matrix metalloproteinase-13 catalytic domain (“MMP-13CD”)
The assay can be described thus: Fluorigenic peptide-1 substrate based assay, MMP-13CD, with/without AcNHOH. The conditions noted are these: IC50 with AcNHOH divided by IC50 without, listed as drawing 47. The format is biochemical.
Protocol: The catalytic domain of the MMP-13 enzyme, namely matrix metalloproteinase-13 catalytic domain (“MMP-13CD”), rather than the corresponding full-length enzyme, MMP-13 was used in such assay.
50 mM HEPES buffer (pH 7.0)
2% DMSO (with or without inhibitor test compound)
1. Dispensed 2 μL inhibitor test sample (in 100% DMSO) into well.
2. Added 88 μL assay mixture and mixed well, avoiding bubbles.
3. Initiated reactions with 10 μL of 5 nM MMP-13CD; mixed well, avoiding bubbles.
4. Immediately measured the kinetics of the reactions at room temperature.
Alternatively, an endpoint read can also be used to determine reaction velocity provided the initial fluorescence of the solution, as recorded before addition of enzyme, is subtracted from the final fluorescence of the reaction mixture.

Assay [7] has as its target T4, MMP-2 full length (2FL) (Homo sapiens, UniProt P08253).
T4 sequence (P08253 110-660): T1 sequence (P08253 110-660)
Briefly: Fluorigenic peptide-1 substrate based assay, MMP-2, with/without AcNHOH. The format is biochemical.

Assay [8] addresses MMP-9 (Homo sapiens, UniProt P14780). The following applies: Chen et al.; cited from earlier work.
The target of assay [9] is TACE (Homo sapiens, UniProt P78536). The following applies: Chen et al.; cited from earlier work.
TACE, sequence (P78536 215-824): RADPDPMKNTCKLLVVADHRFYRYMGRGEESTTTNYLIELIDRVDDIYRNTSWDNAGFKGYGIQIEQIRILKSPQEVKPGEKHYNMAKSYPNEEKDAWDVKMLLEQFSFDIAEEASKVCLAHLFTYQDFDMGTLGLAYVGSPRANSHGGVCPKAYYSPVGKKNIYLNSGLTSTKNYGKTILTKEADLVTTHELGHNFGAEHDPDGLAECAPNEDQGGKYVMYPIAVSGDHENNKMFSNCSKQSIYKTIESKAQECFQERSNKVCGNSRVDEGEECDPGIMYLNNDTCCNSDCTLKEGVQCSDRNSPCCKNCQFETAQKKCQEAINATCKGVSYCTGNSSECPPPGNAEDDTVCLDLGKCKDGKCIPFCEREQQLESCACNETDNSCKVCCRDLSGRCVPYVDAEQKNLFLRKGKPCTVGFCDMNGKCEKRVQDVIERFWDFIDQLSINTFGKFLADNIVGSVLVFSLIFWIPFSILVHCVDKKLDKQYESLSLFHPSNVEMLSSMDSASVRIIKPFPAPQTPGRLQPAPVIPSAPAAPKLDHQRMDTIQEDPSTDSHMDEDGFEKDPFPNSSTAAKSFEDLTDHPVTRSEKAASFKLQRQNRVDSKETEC
In assay [10] the target is MMP-13 (Homo sapiens, UniProt P45452). The following applies: Chen et al.; cited from earlier work.
Assay [11] addresses T5, MMP-1 (Homo sapiens, UniProt P03956).
T5 sequence (P03956 100-469): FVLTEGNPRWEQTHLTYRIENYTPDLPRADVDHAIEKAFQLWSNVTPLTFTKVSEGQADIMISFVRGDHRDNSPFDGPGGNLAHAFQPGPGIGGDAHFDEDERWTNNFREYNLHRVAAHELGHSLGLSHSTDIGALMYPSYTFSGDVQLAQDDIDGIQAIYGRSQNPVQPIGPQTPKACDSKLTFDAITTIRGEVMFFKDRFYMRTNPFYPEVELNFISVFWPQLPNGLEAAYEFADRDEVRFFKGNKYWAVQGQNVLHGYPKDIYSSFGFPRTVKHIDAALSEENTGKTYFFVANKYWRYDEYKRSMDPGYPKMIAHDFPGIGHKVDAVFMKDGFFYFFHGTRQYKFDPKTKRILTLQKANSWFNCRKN
The conditions noted are these: Chen et al.; cited from earlier work.

Molecules are shown by their SMILES.

MMP-9, sequence (P14780 94-707): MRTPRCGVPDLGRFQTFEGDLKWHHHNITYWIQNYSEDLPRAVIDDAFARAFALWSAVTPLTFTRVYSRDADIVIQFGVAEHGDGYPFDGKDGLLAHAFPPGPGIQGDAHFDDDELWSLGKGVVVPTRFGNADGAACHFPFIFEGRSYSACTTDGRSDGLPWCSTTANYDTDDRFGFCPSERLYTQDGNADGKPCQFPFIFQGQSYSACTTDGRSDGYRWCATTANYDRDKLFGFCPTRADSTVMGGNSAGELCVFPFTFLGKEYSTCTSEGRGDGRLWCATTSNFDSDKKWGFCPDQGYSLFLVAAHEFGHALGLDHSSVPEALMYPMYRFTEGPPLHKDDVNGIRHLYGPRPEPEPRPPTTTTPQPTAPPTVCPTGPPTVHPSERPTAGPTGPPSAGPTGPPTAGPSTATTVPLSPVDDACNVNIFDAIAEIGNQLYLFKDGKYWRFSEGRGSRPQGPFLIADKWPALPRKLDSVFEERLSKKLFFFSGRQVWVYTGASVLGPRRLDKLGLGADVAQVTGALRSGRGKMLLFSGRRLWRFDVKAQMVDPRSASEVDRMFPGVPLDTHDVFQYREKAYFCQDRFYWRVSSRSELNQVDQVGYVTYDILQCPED

Take `CC1(C)OCC([C@@H](CS(=O)(=O)c2ccc(Oc3ccc(OC(F)(F)F)cc3)cc2)N(O)C=O)O1` (some centres unmarked): the “Selectivity for inhibition of MMP-2 and MMP-9 over MMP-1” value in assay [1] is recorded as “selective”. In addition, the Antitumor activity entry in [2] is “demonstrated antitumor activity”.
As to `CC1(C)NC(=O)N(C[C@@H](COc2ccc(-c3ccc(OC(F)(F)F)cc3)cc2)N(O)C=O)C1=O`, the “Selectivity for MMP-2 versus MMP-1” value in assay [3] was “highly selective”.
For `O=C(NC(=S)NCc1cc(-c2ccccc2)no1)c1ccccc1` [N-[(3-phenylisoxazol-5-ylmethyl)-aminothiocarbonyl]-benzamide], the “Mechanism of inhibition of MMP-2” value in [4] is reported as “uncompetitive inhibitor”. Moreover, the “IC50 Ratio (±)” value in assay [5] was found to be 0.39; in assay [6], 0.09; in assay [7], 0.10.
As to `O=C(NCCCCN1CCOCC1)c1cc2ccccc2o1` [CL-82198], the “Activity against MMP-9” value in assay [8] is “complete lack of activity”. In addition, in assay [9], the “Activity against TACE” value is given as “complete lack of activity”. Also, the “Inhibition of MMP-13” value in [10] was “weak inhibition”. Also, the “Activity against MMP-1” value in [11] is given as “complete lack of activity”.

The record behind these values is US20040171543A1, “Matrix metalloproteinase inhibitors and methods for identification of lead compounds” (priority 2002, published 2004).
